Laboratory results from patent publication US4806532A, “Inhibition of epithelial phosphate transport” (Mayo Foundation for Medical Education and Research, priority 1985, dated 1989).
Values joined by “and” are separate entries in the source; they are usually repeats but may differ in a detail not shown here. Identical values can stand only once. Counter-ions that a name gives are not always drawn.

How the values were obtained:
[1] = test system: L-[^3 H]-proline uptake by BBMV; test: Na+-gradient-dependent uptake of L-[3H]-proline by renal BBMV; type: biochemical, rat; conditions: 1 mM TPFA; mean ± SEM, n=4; control 43±3
Protocol: The brush border membrane vesicles (BBMV) were prepared from renal cortical tissue of adult male Sprague-Dawley rats of an average body weight of about 220 grams. Rats were fed ad libitum standard rat chow containing 0.7% Pi and had free access to distilled water. Rats were sacrificed under anesthesia and dissected renal cortical tissue was used for preparation of BBMV fraction by the divalent cation-precipitation procedure, employed and described in detail in J. Clin. Invest., 67, 1347 (1981) and J. Biol. Chem., 258, 5695 (1983), with the following modifications: (a) MgCl2 instead of CaCl2 was added to crude homogenate (final concentration 10 mM MgCl2) to precipitate membranes other than BBMV; (b) in the final step, BBMV were washed and equilibrated in a medium of pH=7.5, instead of pH=8.5. The enrichment and specific activities of typical BBM enzymes alkaline phosphatase (APases), γ-glutyamyl transferase (γ-GTT), leucineaminopeptidase (LAP) and maltase with use of these modifications were similar as in BBMV fractions prepared in our previous studies. […]
The BBMV uptake of ^32 Pi, D-[^3 H]-glucose, L-[^3 H]-proline and ^22 Na^+ was measured by means of a rapid filtration technique, as described in J. Clin. Invest., 67, 1347 (1981) and Am. […]

Na-Pi cotransporter [2] = molecular target: T1, Na-Pi cotransporter (Rattus norvegicus, UniProt Q06496); test: Reversibility of TPFA inhibition: 32Pi uptake of BBMV after preincubation and washout; type: biochemical
T1 construct: from tissue; host or cells: rat renal cortex, brush border membrane vesicles
T1 sequence (Q06496 1-637): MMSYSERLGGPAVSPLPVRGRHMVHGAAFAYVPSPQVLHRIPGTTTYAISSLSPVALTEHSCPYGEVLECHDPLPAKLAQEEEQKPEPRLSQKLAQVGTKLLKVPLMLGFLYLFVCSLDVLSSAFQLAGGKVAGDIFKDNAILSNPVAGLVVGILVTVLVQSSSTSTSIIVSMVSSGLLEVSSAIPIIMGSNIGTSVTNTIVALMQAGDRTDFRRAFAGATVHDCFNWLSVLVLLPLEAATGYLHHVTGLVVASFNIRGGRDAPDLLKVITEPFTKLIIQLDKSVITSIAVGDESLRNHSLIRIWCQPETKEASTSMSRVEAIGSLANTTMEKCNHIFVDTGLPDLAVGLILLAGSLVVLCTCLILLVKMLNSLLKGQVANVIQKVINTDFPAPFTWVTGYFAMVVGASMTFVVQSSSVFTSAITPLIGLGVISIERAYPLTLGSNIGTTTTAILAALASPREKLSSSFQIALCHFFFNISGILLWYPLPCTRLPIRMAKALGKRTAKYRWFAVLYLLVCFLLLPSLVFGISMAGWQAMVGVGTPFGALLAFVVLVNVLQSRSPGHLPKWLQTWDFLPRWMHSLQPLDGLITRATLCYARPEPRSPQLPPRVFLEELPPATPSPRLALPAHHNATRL
Protocol: The reversibility of the inhibition of ^32 Pi transport across BBMV by TPFA was explored using the following protocol. […] The suspensions of BBMV were incubated for 10 min at room temperature. At the end of incubation period, incubation mixtures were diluted with 10 ml of ice-cold MTH-medium, resuspended and centrifuged at 35,000×g for 20 min. The supernatant was discarded and BBMV pellet was suspended in MTH-medium and then assayed for Na^+ -gradient-dependent ^32 Pi uptake.

Na-Pi cotransporter [3] = molecular target: T2, Na-Pi cotransporter (Oryctolagus cuniculus, UniProt Q28620); test: Na+-gradient-dependent 32Pi uptake by renal BBMV, rabbit; type: biochemical
T2 construct: were prepared from renal cortices of mongrel dogs, albino mice and New Zealand albino rabbits; from tissue; host or cells: New Zealand albino rabbit renal cortex, brush border membrane vesicles
T2 sequence (Q28620 1-642): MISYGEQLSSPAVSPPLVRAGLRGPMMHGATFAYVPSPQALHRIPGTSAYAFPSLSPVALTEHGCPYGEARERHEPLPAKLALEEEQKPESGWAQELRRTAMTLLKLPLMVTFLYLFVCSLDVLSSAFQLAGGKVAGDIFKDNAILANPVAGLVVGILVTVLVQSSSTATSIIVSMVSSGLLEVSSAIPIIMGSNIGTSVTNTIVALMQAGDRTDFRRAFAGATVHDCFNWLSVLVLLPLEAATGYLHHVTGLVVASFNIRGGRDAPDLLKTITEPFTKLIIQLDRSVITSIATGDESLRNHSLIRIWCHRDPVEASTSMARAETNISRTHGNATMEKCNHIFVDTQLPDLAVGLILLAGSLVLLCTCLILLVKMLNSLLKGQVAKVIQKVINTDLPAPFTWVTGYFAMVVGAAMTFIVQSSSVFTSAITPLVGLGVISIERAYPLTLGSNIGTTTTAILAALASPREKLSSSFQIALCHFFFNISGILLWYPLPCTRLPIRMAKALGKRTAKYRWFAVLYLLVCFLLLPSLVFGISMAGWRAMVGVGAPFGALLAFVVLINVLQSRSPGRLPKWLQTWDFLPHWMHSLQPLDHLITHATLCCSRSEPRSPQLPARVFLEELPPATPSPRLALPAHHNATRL
Protocol: The brush border membrane vesicles (BBMV) were prepared from renal cortical tissue of adult male Sprague-Dawley rats of an average body weight of about 220 grams. Rats were fed ad libitum standard rat chow containing 0.7% Pi and had free access to distilled water. Rats were sacrificed under anesthesia and dissected renal cortical tissue was used for preparation of BBMV fraction by the divalent cation-precipitation procedure, employed and described in detail in J. Clin. Invest., 67, 1347 (1981) and J. Biol. Chem., 258, 5695 (1983), with the following modifications: (a) MgCl2 instead of CaCl2 was added to crude homogenate (final concentration 10 mM MgCl2) to precipitate membranes other than BBMV; (b) in the final step, BBMV were washed and equilibrated in a medium of pH=7.5, instead of pH=8.5. The enrichment and specific activities of typical BBM enzymes alkaline phosphatase (APases), γ-glutyamyl transferase (γ-GTT), leucineaminopeptidase (LAP) and maltase with use of these modifications were similar as in BBMV fractions prepared in our previous studies. As a final step in the preparative procedure, the BBMV fraction was washed and resuspended in a medium containing 300 mM mannitol and 5 mM Tris-HEPES adjusted to pH=t.5, referred to as "MTH-medium," unless specified otherwise. The analogous BBMV fractions, using the same procedure, were prepared from renal cortices of mongrel dogs, albino mice and New Zealand albino rabbits.
The BBMV uptake of ^32 Pi, D-[^3 H]-glucose, L-[^3 H]-proline and ^22 Na^+ was measured by means of a rapid filtration technique, as described in J. Clin. Invest., 67, 1347 (1981) and Am. J. Physiol., 246, F133-F139 (1984). Also, unless specified otherwise, the medium for the solute uptake assay consisted of following compounds (in final concentrations): 100 mM mannitol, 100 mM NaCl (or 100 mM KC1) and 5 mM Tris-HEPES (pH=7.5) and eitehr 0.1 mM K2 H^32 PO4, or 0.05 mM D-[^3 H]-glucose, or 0.025 mM L-[^3 H]-proline. IN the ^22 Na^+ uptake studies, the assay medium contained 100 mM ^22 NaCl (^22 NaCl about […] per tube), 100 mM mannitol and 5 mM Tris-HEPES (pH 7.5).
In most experiments, the Na^+ -gradient-dependent ^32 Pi uptake in the concentrative "uphill" phase was measured at 20 seconds period. Since Na^+ -independent Pi uptake in this time period was quantitatively minor component (<5%) of the Na^+ -gradient-dependent Pi uptake, it was not routinely subtracted.

O=C(O)P(=O)(O)O [TPFA, Phosphonoformic acid, trisodium salt hexahydrate]
equilibrium uptake of L-[3H]-proline at 120 minutes [1]: 43+1 pmoles/mg protein | 32Pi uptake 120 min, TPFA-preincubated (Na-Pi cotransporter [2]; BBMV preincubated with 5 mM TPFA 10 min, diluted 1:10, washed, Experiments 1 and 2): 326 ± 5 pmoles/mg protein and 293 ± 3 pmoles/mg protein | 32Pi uptake 20 sec, TPFA-preincubated (Na-Pi cotransporter [2]; BBMV preincubated with 5 mM TPFA 10 min, diluted 1:10, washed, Experiments 1 and 2, mean ± SEM): 1240 ± 25 pmoles/mg protein and 1128 ± 38 pmoles/mg protein | rate of Na+-gradient-dependent BBMV uptake of Pi after washout of TPFA by dilution (Na-Pi cotransporter [2]; versus control BBMV not exposed to TPFA): indistinguishable from control BBMV | 32Pi-uptake 120 min (Na-Pi cotransporter [3]; 1 mM TPFA, control 551 ± 15): 532 ± 19 pmoles Pi/mg protein/time | 32Pi-uptake 20 sec (Na-Pi cotransporter [3]; 1 mM TPFA, control 768 ± 7): 279 ± 4 pmoles Pi/mg protein/time | 32Pi-uptake 20 sec (Na-Pi cotransporter [3]; 5 mM TPFA): 107 ± 5 pmoles Pi/mg protein/time | 32Pi-uptake 120 min (Na-Pi cotransporter [3]; 5 mM TPFA): 549 ± 11 pmoles Pi/mg protein/time | inhibition at 1000 µM (Na-Pi cotransporter [3]; 20 s, 1 mM TPFA, read-out: percent decrease of 20 sec 32Pi-uptake relative to control value): 63.7% | inhibition at 5000 µM (Na-Pi cotransporter [3]; 20 s, 5 mM TPFA, read-out: percent decrease of 20 sec 32Pi-uptake relative to control value): 86.1%
